Bases are written 5' to 3'; sugars and linkages follow in the same order, as letters with counts (s phosphorothioate, o phosphodiester; PS: all linkages phosphorothioate). The collection does not say whether C is 5-methylated. l = locked nucleic acid (LNA); d = 2'-deoxy (DNA)
molecular target: Tau; test: rat primary cortical neurons, FLIPR, 25 uM ASO

Row | Sequence | calcium oscillation score
1 | CCAACTCTTTGAACACC (sugars l3 d12 l2, PS) | 75.5 % of control
2 | CCTTTTAAAAGAACCCT (sugars l3 d11 l3, PS) | 96 % of control
3 | TGGATATAGTTAAGGC (sugars l2 d12 l2, PS) | 115 % of control
4 | CCAATTAACCGAACTG (sugars l3 d10 l3, PS) | 55.2 % of control
5 | CCCCATTTTTGACATAT (sugars l2 d12 l3, PS) | 73.1 % of control
6 | TTAATTCATTTAATTCTCTT (sugars l4 d12 l4, PS) | 86.1 % of control
7 | TAGTCACTCTGGTG (sugars l3 d8 l3, PS) | 81.9 % of control
8 | CCACCATACTTGACTTCT (sugars l2 d14 l2, PS) | 76.8 % of control
9 | TTTTCCCAATTATTAACCC (sugars l3 d14 l2, PS) | 71.4 % of control
10 | TTCCACTACAAGCTCCAC (sugars l3 d13 l2, PS) | 52 % of control
11 | TTGGCTTTGGCGTTCT (sugars l3 d10 l3, PS) | 74.5 % of control
12 | TAATTACATTTTTTCTTTTT (sugars l4 d12 l4, PS) | 58.2 % of control
13 | AATAAGAAAGGAACGC (sugars l5 d7 l4, PS) | 121 % of control
14 | ATTGCAACTTTAACTCC (sugars l3 d10 l4, PS) | 62.9 % of control
15 | AACCATTAACTGCCTAT (sugars l4 d10 l3, PS) | 53 % of control
16 | CCTTTTTATTTCCTCCGC (sugars l3 d13 l2, PS) | 40.1 % of control
17 | TATTAATTATCTGCAC (sugars l3 d10 l3, PS) | 27.1 % of control
18 | ATTATTTACACTGTCCT (sugars l2 d11 l4, PS) | 78.1 % of control
19 | TCTTGGCGGAAGACGG (sugars l3 d10 l3, PS) | 100 % of control
20 | TATTGCTTTCCAATTCCC (sugars l4 d12 l2, PS) | 93.2 % of control
21 | GGGCCTGATCACAAACCCTG (sugars l3 d14 l3, PS) | 42.7 % of control
22 | TCTTTGCTTTTACTGACCAT (sugars l3 d14 l3, PS) | 29.6 % of control
23 | TAACTCATCAACACCTTTTA (sugars l4 d14 l2, PS) | 82.6 % of control
24 | TTTATAGGTGCATAGT (sugars l2 d10 l4, PS) | 0 % of control
25 | TCCTAATTCCCAAATTCCTC (sugars l2 d15 l3, PS) | 76.6 % of control
26 | TATTTCCAAATTCACTTTTA (sugars llddlldddddddddlldll, PS) | 123 % of control
27 | AAGAGTCACTGCACTGCATT (sugars l3 d14 l3, PS) | 30.9 % of control

Row | Sequence | calcium oscillation score
28 | ACTGGTTTGTAGACTATTTG (sugars l3 d14 l3, PS) | 0 % of control
29 | TATCTGCAAACTCAAC (sugars l4 d8 l4, PS) | 98.9 % of control
30 | ATGATTGTGGGCTTA (sugars l3 d9 l3, PS) | 7.83 % of control
31 | ATTTCCAAATTCACTTTTAC (sugars lllldddddddddldlddll, PS) | 137 % of control
32 | TCATCGCTTCCAGTCC (sugars l3 d10 l3, PS) | 19.2 % of control
33 | AATAAGAAAGGAACGC (sugars l4 d9 l3, PS) | 102 % of control
34 | AATTTCAGAGCAAAGTGACC (sugars l3 d14 l3, PS) | 2.38 % of control
35 | GATTAACCAATTAACC (sugars l3 d10 l3, PS) | ≥ 200 % of control
36 | CTGGTTTATGATGG (sugars l3 d8 l3, PS) | 32.6 % of control
37 | TGGCCATCTTATGCTGACCA (sugars l3 d14 l3, PS) | 29.4 % of control
38 | TATTTCAACTCTTAGCA (sugars l4 d10 l3, PS) | 59 % of control
39 | GATACTCAAATTCTTCC (sugars l4 d10 l3, PS) | 67.8 % of control
40 | TCCTAATCCTGTGCTT (sugars l3 d10 l3, PS) | 23 % of control
41 | AAAGATGAAATTTGCTCTTA (sugars l3 d14 l3, PS) | 145 % of control
42 | CCCACATTTGCAAACCA (sugars l2 d13 l2, PS) | 53.9 % of control
43 | GCCCCACTTTTAATTAA (sugars l2 d11 l4, PS) | 86.2 % of control
44 | GATGTTGCCTAATGAGCCAC (sugars l3 d14 l3, PS) | 4.52 % of control
45 | CTAGTTATACAGTTGGCCCT (sugars l3 d14 l3, PS) | 33.3 % of control
46 | TGGTTAGCCCTAAAGT (sugars l3 d10 l3, PS) | 77 % of control
47 | ACTGGCGACTTGTACACGAT (sugars l3 d14 l3, PS) | 0 % of control
48 | CCTCCATTAAGAACCTA (sugars l2 d12 l3, PS) | 90.1 % of control
49 | AGTTCCCACAATTCCTAC (sugars l2 d13 l3, PS) | 50.4 % of control
50 | CACTTTCCTAATTCCCAAA (sugars l3 d14 l2, PS) | 68 % of control
51 | TTATTTCCAAATTCACTTTT (sugars lllddldddddddddldlll, PS) | 108 % of control
52 | GTCACCTTGCTCAGGT (sugars l3 d10 l3, PS) | 7.67 % of control
53 | TTTCAACTCTTAGCATCC (sugars l2 d12 l4, PS) | 52.5 % of control
54 | TTTTTCTCTCTTAACTTTAT (sugars l4 d12 l4, PS) | 93.2 % of control

From the OligoGym collection
